Measurements published in PMC3355318 (Toxicological Sciences, 2012).

Tests used:
HepG2 cells = details: ref Wang et al., 2002; cited from earlier work
Huh-7 cells = details: ref Lin et al., 2012; cited from earlier work
[1] = test system: 3D spheroids constructed from immortal human C3A hepatocytes (HepG2/C3A)
[2] = ref Schulz and Schmoldt, 2003; cited from earlier work

Compound	LD50 converted from published LC50 (HepG2 cells) [mg/mg]	LD50 converted from published LC50 (Huh-7 cells) [mg/mg]	cellular ATP production at low compound concentrations [1]	LD50 ([1]; human)	Terminal elimination half-life [2] [h]
CC(=O)Nc1ccc(O)cc1 [APAP, Acetaminophen]	82.32	4.13	–	–	–
CN(C)C(=N)N=C(N)N [Metformin, metformin]	–	–	slightly increased	2.76 mg compound/mg cellular protein	–
[H]/N=C(/N)N/C(=N/[H])NCCc1ccccc1 [Phenformin, phenformin]	–	–	not seen	–	–
CCCC(CCC)C(=O)O [Valproic acid, valproic acid]	–	–	not seen	–	15
